Measured values reported in ChEMBL document CHEMBL1138101, “Heteroaryl substituted bis-trifluoromethyl carbinols as malonyl-CoA decarboxylase inhibitors” (Bioorg Med Chem Lett, 2006).

Biological target: T1, Malonyl-CoA decarboxylase, mitochondrial (Homo sapiens, UniProt O95822)
T1 sequence (O95822 whole entry): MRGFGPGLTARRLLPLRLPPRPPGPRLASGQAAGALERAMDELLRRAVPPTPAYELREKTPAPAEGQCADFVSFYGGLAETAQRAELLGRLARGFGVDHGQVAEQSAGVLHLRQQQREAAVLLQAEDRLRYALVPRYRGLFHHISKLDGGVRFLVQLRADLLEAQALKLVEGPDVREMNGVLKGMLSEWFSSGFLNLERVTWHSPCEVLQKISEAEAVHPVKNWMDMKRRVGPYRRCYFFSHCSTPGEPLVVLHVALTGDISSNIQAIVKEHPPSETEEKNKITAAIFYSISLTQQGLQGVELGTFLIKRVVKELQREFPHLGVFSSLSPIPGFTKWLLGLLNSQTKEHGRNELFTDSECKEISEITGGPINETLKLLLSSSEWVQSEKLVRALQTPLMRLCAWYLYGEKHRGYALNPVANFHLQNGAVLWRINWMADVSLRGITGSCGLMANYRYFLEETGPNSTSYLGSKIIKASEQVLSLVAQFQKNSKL

- IC50: 1580 nM
SMILES: CC(C)C(=O)N(CC1CCCO1)c1ncc(C(O)(C(F)(F)F)C(F)(F)F)s1 (stereo unspecified)
